Laboratory results reported in patent US20250101383A1, “METHODS AND COMPOSITIONS FOR CARDIAC MODELS” (Sanford Burnham Prebys Medical Discovery Institute, priority 2023, published 2025).

Columns and labels:
[1] = test system: hiPSC-ACMs (atrial-like cardiomyocytes); test: Arrhythmia assay and drug treatment in ACMs (arrhythmia index, AI); assay type: cell-based, human; conditions: for percentage of cells with AI values >20: control 4%
Protocol: To test the platform's ability to identify APD modulators, ACMs of the present disclosure were infused with isoproterenol, a non-selective β-adrenergic agonist, known to both shorten APD and increase beat rate in hiPSC-CMs. […] Consistent with median APD75 values, escalating doses of isoproterenol (1 and 9 μM) led to an increase of APD75 KS-D value to ˜0.4 and 0.7 respectively, as compared to control (FIG. 5C). Similarly, to quantify cellular manifestations of arrhythmia, an arrhythmia index (AI) was developed that quantifies beat-to-beat interval irregularities as a metric for arrhythmically beating cells (FIG. 9). In this context, AP trains with AI values lower than 20 were determined to describe regular beating patterns, while AP train with AI values >20 mark were determined to describe irregular beating patterns (FIGS. 10A-E). Finally, to benchmark the platform for arrhythmia-associated phenotypes, the role of dofetilide, a class III anti-arrhythmic that selectively blocks the rapid component of the delayed rectifier outward potassium, was tested.
24 hours post-transfection, 2,000 primary human fibroblasts were added per well to the hiPSC-ACMs. 48 hours later (the day of the imaging), cells were dyed with the voltage sensitive dye Vf2.1 Cl as described above, then treated with 50 μL of 2× solution of isoproterenol (1 μM final) diluted in Tyrode alone and in combination with 2× solution of Verapamil (30 nM final), diluted in Tyrode at the 5th wash. After 20 minutes of compound incubation time, cells were imaged, and single-cell traces analyzed as described previously.

[2] = test system: hiPSC-ACMs (atrial-like cardiomyocytes); test: Voltage assay in ACMs (single-cell APD); assay type: cell-based, human; conditions: for median APD75: untreated 121.3 ms
Description: Next, to facilitate the characterization of AF-associated arrhythmia phenotypes in ACMs, an imaging platform was developed that automatically tracks and quantifies action potential (AP) and rhythm parameters in HT with single cell resolution (FIGS. 4A-D). To retrieve AP and rhythm parameters, ACMs of the present disclosure were co-labeled with a voltage dye (VF2.1Cl) and a nuclear dye (Hoechst 33258) (McKeithan et al., 2017). For each condition, one image of the Hoechst dye was collected followed by a 5-second acquisition of the voltage dye channel at 100 Hz. Next, using a custom algorithm developed on the ImageXpress®, each cell in the field of view was segmented using the Hoechst topological information and each cell mask was propagated to the “voltage dye channel”, thereby enabling the quantification of voltage-dependent fluorescence variation over time with single-cell resolution. To retrieve the electrophysiological parameters, a cloud-based trace analysis application was developed that automatically processes each AP trace and retrieves median and standard deviation values, for APD-10, 25, 50, 75, 90; T25-75, T75-25; Vmax up and down; beat rate; peak-to-peak interval; and rhythm regularity index; for each cell. This platform enabled the automatic recording, quantification, and analysis of AP and rhythm parameters in less than 2 minutes per condition.
Voltage assay was performed using the labeling protocol described herein. Briefly, hiPSC-ACMs at day 25 of differentiation were dissociated with TrypLE Select 10× for up to 10 min and the action of TrypLE was neutralized with RPMI supplemented with 10% FBS. Cells were resuspended in RPMI with 2% KOSR (Gibco) and 2% B27 50× with vitamin A (Life Technologies) supplemented with 2 μM Thiazovivin and plated at a density of 6,000 cells per well in a Matrigel-coated 384-well plate. hiPSC-ACMs were then transfected with siRNAs directed against AFib-associated genes (ON-TARGETplus Human, siGATA4: J-008244-05-0002, siGATA5: J-010324-06-0005, siGATA6: J-008351-06-0005, siGJA1: J-011042-05-0002, siGJA5: J-017368-05-0002, siHAND2: J-008698-06-0005, siHCN4: J-006203-05-0002, siKCNA5: J-006215-06-0005, siKCND3: L-006226-00-0005, siKCNJ5: J-006250-06-0002, siKCNN3: J-006270-06-0002, siNKX2-5: J-019795-07-0002, siNKX2-6: J-025793-17-0002, siNPPA: J-012729-05-0002, siPITX2: J-017315-05-0005, siPLN: J-011754-05-0005, siSH3PXD2A: J-006657-07-0002, siSYNE2: J-019259-09-0002, siTBX5: J-013410-5-0002, siZFHX3: J-015410-5-0002) using lipofectamine RNAi Max (ThermoFisher). […] Fluorescence over time quantification and trace analysis were quantified using custom software packages. […]

[3] = test system: Drosophila heart; test: Octopamine-challenge heart assay; assay type: in vivo; conditions: for mean nMAD (arrhythmia) post-octopamine pacing: 100 nM OA
Description: Cardiac phenotypes of middle-aged (3-weeks old) female flies from each cross were characterized using denervated, semi-intact preparations as previously described in (Ocorr et al., 2009; Vogler and Ocorr, 2009). Briefly, hearts from 20-25 flies were examined for each genotype and age. Adult female flies were exposed to FlyNap, a triethylamine-based anesthetic, for at least one minute until no movement was detected. Hearts were exposed by dissection in room temperature, air bubbled, artificial hemolymph (AHL, Ocorr et al, 2007). High-speed video recordings were filmed with a Hamamatsu EM-CCD camera and using HC Image capture software (Hamamatsu Corp). Heart movements were analyzed using the Semi-automated Optical Heartbeat Analysis (SOHA) software (sohasoftware.com). Movies were recorded at speeds of 140+ fps with pixel resolution ˜ 1 micron/pixel allowing very precise temporal and spatial measurements, including heart period (HP) and rate (1/HP), diastolic and systolic intervals, and fractional shortening/contractility. To quantitate arrhythmia, median absolute deviation (MAD) was first calculated. The median value of the absolute deviations of each heart period (Xi) from the median heart period ((X)) was calculated and then multiplied by a constant (k=1.4826 assuming data is normally distributed).
To normalize the MAD index (nMAD), the MAD value was divided by the median heart period. Qualitative records of heart wall movements (M-modes/kymographs) were produced by electronically excising a 1 pixel horizontal “slice” from each movie frame and aligning them horizontally providing an edge trace displaying heart wall movements in the X-axis over time along the Y-axis (Ocorr et al., 2009; Ocorr et al., 2007c).
Octopamine (OA) pacing experiments were performed in situ on the semi-intact fly preparation. OA (Sigma-Aldrich #00250) stock solution (10 mM) was freshly prepared by dissolving in water and was further diluted in AHL. A dose-response curve was generated using doses ranging from 0.1 nM OA to 500 nM OA (Supplemental FIG. 5A). The increase in heart rate was maximal at 100 nM OA, which was the dose used for all subsequent pacing experiments (Supplemental FIG. 5B). Following dissection, hearts were first allowed to equilibrate in fresh AHL for 15 min and 30 sec movies of heart function were recorded. Heart function was recorded three times per fly: 1) pre-drug exposure, 2) after a 15-minute exposure to 100 nM OA, and 3) after a 15-minute post drug exposure recovery period. A second set of hearts exposed only to vehicle (AHL) were filmed at the same three 15-minute intervals to serve as time controls.

[4] = test system: Id1-induced CPs; test: Generation of atrial-like cardiomyocytes from Id1-induced cardiac progenitors; assay type: cell-based, human; conditions: retinoic acid 300 nM single dose, day 12
Protocol: To study the molecular basis of chamber-specific electrical disorders such as atrial fibrillation, Id1-overexpressing cardiac progenitors (CPs) were used to generate ACMs (Cunningham et al., 2017, and Yu et al., 2018). Treatment of Id1-induced CPs with a single dose of retinoic acid (300 nM) efficiently promoted the generation of atrial-like, NR2F2+ beating CMs (˜80% were NR2F2+, ACTN2+) (FIG. 1 and FIGS. 2A-B). Consistent with an atrial-like identity, induced ACMs also expressed atria-enriched (Devalla et al., 2015; Uhlen et al., 2015) transcription factors (NR2F2, TBX5, ZNF385B), ion channel genes KCNA5 (encoding Kv1.5) and KCNJ3 (encoding Kir 3.1), ligands (NPPA, NPPB) and receptors (EGR1/2, PDGFRA), at both day 12 and at day 25 of differentiation (FIG. 2C and FIGS. 6A-B).
ACMs for the study were developed by dissociating Id1 overexpressing hiPSCsl with 0.5 mM EDTA (ThermoFisher Scientific) in PBS without CaCl2 and MgCl2 (Corning) for 7 min at room temperature. hiPSC were resuspended in mTeSR-1 media (StemCell Technologies) supplemented with 2 μM Thiazovivin (StemCell Technologies) and plated in a Matrigel-coated 12-well plate at a density of 3×10^5 cells per well. […]

[5] = acute OA exposure, control and KD lines

CN(CCOc1ccc(NS(C)(=O)=O)cc1)CCc1ccc(NS(C)(=O)=O)cc1 [dofetilide]
proportion of arrhythmic cells (AI>20) ([1]; dofetilide 33 nM, control 4.0%): 3.9% | KS-D value of AI distribution vs control ([1]; dofetilide 100 nM): 0.7 | percentage of cells with AI values >20 ([1]; dofetilide 100 nM): 67% | percentage of cells with AI values >20 ([1]; dofetilide 100 nM, listed as Dofetilide): 67.0% | AI as compared to control ([1]; low dose of dofetilide (33 nM)): reduced AI

CC(C)NCC(O)c1ccc(O)c(O)c1 (stereo not shown) [isoproterenol]
APD75 KS-D value as compared to control ([2]; isoproterenol 1 μM): ~0.4 | median APD75 ([2]; isoproterenol 1 μM): 108.6 ms | APD75 KS-D value as compared to control ([2]; isoproterenol 9 μM): 0.7 | median APD75 ([2]; isoproterenol 9 μM): 91.2 ms | percentage of arrhythmic cells ([1]; isoproterenol alone): did not increase

NCC(O)c1ccc(O)cc1 (stereo not shown) [octopamine]
mean nMAD (arrhythmia) post-octopamine pacing ([3]; PLN/SclA KD hearts): 0.1342 | mean nMAD (arrhythmia) post-octopamine pacing ([3]; control hearts): 0.0379 | heart rate [3, 5]: significantly elevated heart rate | systolic intervals [3, 5]: significantly shortening systolic intervals | dose of maximal effect on heart rate ([3]; doses 0.1 nM to 500 nM OA): 100 nM | contraction and relaxation intervals ([3]; in the presence of OA): significantly shortened

CC1=C(/C=C/C(C)=C/C=C/C(C)=C/C(=O)O)C(C)(C)CCC1 [retinoic acid]
NR2F2+, ACTN2+ cells [4]: ~80%

COc1ccc(CCN(C)CCCC(C#N)(c2ccc(OC)c(OC)c2)C(C)C)cc1OC (stereo not shown) [verapamil]
fold less arrhythmic than DMSO control ([1]; verapamil 30 nM, PLN KD+Fib+isoproterenol): 1.7 fold | percentage of arrhythmic cells ([1]; verapamil 30 nM, PLN KD+Fib+isoproterenol, DMSO control 31.2%): 18%
